Assay results from patent US3965109A, “Certain aryl amino pyridines” (priority 1971, dated 1976).

Experiments:
[1] = tested on: Phytophthora infestans (tomato); format: in vivo; conditions: 100 ppm spray and drench; 3 days
[2] = tested on: Plasmopara viticola (vine); assay: Fungicidal test against foliar disease C (foliage spray plus soil drench); format: in vivo; conditions: 100 ppm spray and drench; 10 days
Uncinula necator (vine) = assay: Fungicidal test against foliar disease D (foliage spray plus soil drench); format: in vivo; conditions: 100 ppm spray and drench; 10 days
[3] = tested on: Tetranychus telarius (red spider mites, adults); assay: Pest toxicity test; format: in vivo; conditions: 0.1% by weight; French bean; 3 days
[4] = tested on: Tetranychus telarius (red spider mites, eggs); assay: Pest toxicity test; format: in vivo; conditions: 0.1% by weight; French bean; 3 days
Aphis fabae = assay: Pest toxicity test; format: in vivo; conditions: 0.1% by weight; broad bean; 2 days
Megoura viceae = assay: Pest toxicity test; format: in vivo; conditions: 0.1% by weight; broad bean; 2 days
[5] = tested on: Aedes aegypti (mosquito larvae); assay: Pest toxicity test; format: in vivo; conditions: 0.01% by weight; water; 1 day
[6] = tested on: Aedes aegypti (mosquito adults); assay: Pest toxicity test; format: in vivo; conditions: 0.01% by weight; plywood; 1 day
[7] = tested on: Pieris brassicae (cabbage white caterpillars); assay: Pest toxicity test; format: in vivo; conditions: 0.1% by weight, 2 days
[8] = tested on: Plutella maculipennis (diamond back moth larvae); assay: Pest toxicity test; format: in vivo; conditions: in vivo
[9] = tested on: Phaedon cochleariae (mustard beetles); assay: Pest toxicity test; format: in vivo; conditions: in vivo
[10] = tested on: Agriolimax reticulatus (slugs); assay: Molluscicidal activity test; format: in vivo, Agriolimax reticulatus (Mull); conditions: pellet with 4% by weight; 6 days; 10°C
Summary of the method: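 Slugs were starved for 24 hours, then housed two per dish, in duplicate, under high humidity at 10°C. They fed on pellets dried to contain 4% w/w of test compound. Mortality was scored on day 6.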

Lettuce = assay: Herbicidal test, pre- and post-emergence; format: in vivo
Tomato = assay: Herbicidal test, pre- and post-emergence; format: in vivo
Wheat = assay: Herbicidal test, pre- and post-emergence; format: in vivo
Maize = assay: Herbicidal test, pre- and post-emergence; format: in vivo
[11] = tested on: Agrobacterium tumifaciens; assay: Antibacterial agar test (B1); format: cell-based; conditions: 50 ppm; 5 days
[12] = tested on: Corynebacterium michiganense; assay: Antibacterial agar test (B2); format: cell-based; conditions: 50 ppm; 5 days
Summary of the method: (§1)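 Bacterial growth on nutrient agar containing 50 ppm final test compound (added from an acetone solution or suspension) was scored 5 days after multipoint inoculation, using graded ratings. Plates were dried overnight before inoculation.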

Xanthomonas malvacearum = assay: Antibacterial agar test (B3); format: cell-based; conditions: 50 ppm; 5 days
Summary of the method: as §1

Erwinia carotovora = assay: Antibacterial agar test (B4); format: cell-based; conditions: 50 ppm; 5 days
Xanthomonas oryzae = format: cell-based; conditions: 50 ppm; 5 days
Pseudomonas syringae = assay: Antibacterial agar test (B6); format: cell-based; conditions: 50 ppm; 5 days
Streptomyces scabies = assay: Antibacterial agar test (B7); format: cell-based; conditions: 50 ppm; 5 days
[13] = tested on: larvae of the blowfly (Lucilia serrata); assay: Insecticidal test on blowfly larvae on treated filter paper; format: in vivo; parameters: key: 5 represents inseccticidal activity equal to that of the known insecticide; 6 represents activity 10 times that of the standard; conditions: scale of 1 to 6; filter paper with horse serum
[14] = tested on: Puccinia recondita (wheat); assay: Fungicidal test against foliar disease A (foliage spray plus soil drench); format: in vivo; conditions: 100 ppm spray and drench; 10 days
[15] = tested on: Piricularia oryzae (rice); format: in vivo; conditions: 100 ppm spray and drench; 7 days
[16] = tested on: Musca domestica (houseflies); assay: Pest toxicity test, contact test; format: in vivo; conditions: 0.1% by weight; milk/sugar; 2 days; flies sprayed directly
[17] = tested on: Meloidogyne incognita (nematodes); assay: Pest toxicity test; format: in vivo; conditions: 0.01% by weight; water; 1 day
[18] = tested on: Venturia inaequalis (apple); assay: Fungicidal test against foliar disease G (foliage spray plus soil drench); format: in vivo; conditions: 100 ppm spray and drench; 21 days
Experimental: This Example illustrates the fungicidal properties of compounds used as active ingredients in the compositions of the invention. The compounds were tested against a wide variety of foliar fungal diseases of plants. In the test, a composition comprising an aqueous solution or suspension of the test compound was sprayed on to the foliage or uninfected plants; the soil in which the plants were growing was also drenched with the composition. The compositions used for spraying and drencing contained 100 parts per million (ppm.) of the test compound except where otherwise stated in the table of results below. After spraying and drenching, the plants were then exposed to infection with the diseases it was desired to control, along with control plants not treated with the compound. After a period of days, depending upon the particular disease, the extent of the disease was visually assessed, as a percentage of the disease established upon the control plants which had not been treated with the compound under test, according to the grading scheme below
In Table 2 below the names of the disease is given in the first column, and in the second column is given the time which elapsed between exposing the plants to infection and assessing the amount of disease.

Sugar beet = assay: Further herbicidal test, various rates; format: in vivo; conditions: 5 lb/acre; scale 0 to 5 (complete kill)
Kale = assay: Further herbicidal test, various rates; format: in vivo; conditions: 5 lb/acre; scale 0 to 5 (complete kill)
Carrot = assay: Further herbicidal test, various rates; format: in vivo; conditions: 5 lb/acre; scale 0 to 5 (complete kill)
Pea = assay: Further herbicidal test, various rates; format: in vivo; conditions: 5 lb/acre; scale 0 to 5 (complete kill)
Onion = assay: Further herbicidal test, various rates; format: in vivo; conditions: 5 lb/acre; scale 0 to 5 (complete kill)
Barley = assay: Further herbicidal test, various rates; format: in vivo; conditions: 5 lb/acre; scale 0 to 5 (complete kill)
Rice = assay: Further herbicidal test, various rates; format: in vivo; conditions: 5 lb/acre; scale 0 to 5 (complete kill)
Oat = assay: Further herbicidal test, various rates; format: in vivo; conditions: 5 lb/acre; scale 0 to 5 (complete kill)
[19] = 10 kg/ha, scale 0 to 3 (complete kill)
[20] = 10 lb/acre (11.2 kg/ha), scale 0 (no effect) to 3 (complete kill)

## N#Cc1cc([N+](=O)[O-])c(Nc2c(Cl)c(F)nc(F)c2Cl)c([N+](=O)[O-])c1 [Compound 34, 4(4-Cyano-2,6-dinitroanilino)-3,5-dichloro-2,6-difluoropyridine]
[1]
  Amount of disease grading, disease B (Table 4): 3 (0 to 5)
[2]
  Amount of disease grading, disease C (Table 4): 3 (0 to 5)
Uncinula necator (vine)
  Amount of disease grading, disease D (Table 4): 3 (0 to 5)
[3]
  Mortality grading (kill): 3 (3 represents over 90% kill)
[4]
  Mortality grading (kill): 3 (3 represents over 90% kill)
Aphis fabae
  Mortality grading (kill): 3 (3 represents over 90% kill)
Megoura viceae
  Mortality grading (kill): 0 (O represents less than 30% kill)
[5]
  Mortality grading (kill): 3 (3 represents over 90% kill)
[6]
  Mortality grading (kill): 0 (O represents less than 30% kill)
[7]
  Mortality grading (kill): 0 (O represents less than 30% kill)
[8]
  Mortality grading (kill): 2 (key: O represents less than 30% kill; 1 represents 30 - 49% kill; 2 represents 60 - 90% kill; 3 represents over 90% kill; C indicates a chemosterilant effect.; A indicates an antifeeding effect.)
[9]
  Mortality grading (kill): 0 (key: O represents less than 30% kill; 1 represents 30 - 49% kill; 2 represents 60 - 90% kill; 3 represents over 90% kill; C indicates a chemosterilant effect.; A indicates an antifeeding effect.)
[10]
  % Kill of slugs: 100%
Lettuce; [19]
  Damage to plants, post-emergence: 0
  Damage to plants, pre-emergence: 3
Tomato; [19]
  Damage to plants, post-emergence: 0
  Damage to plants, pre-emergence: 2
Wheat; [19]
  Damage to plants, post-emergence: 0
  Damage to plants, pre-emergence: 3
Maize; [19]
  Damage to plants, post-emergence: 0
  Damage to plants, pre-emergence: 3
[11]
  Antibacterial activity grading B1: 0 (61 to 100)
[12]
  Antibacterial activity grading B2: 3 (0 to 5)
Xanthomonas malvacearum
  Antibacterial activity grading B3: 2 (6 to 25)
Erwinia carotovora
  Antibacterial activity grading B4: 0 (61 to 100)
Xanthomonas oryzae
  Antibacterial activity grading B5: 2 (6 to 25)
Pseudomonas syringae
  Antibacterial activity grading B6: 3 (0 to 5)
Streptomyces scabies
  Antibacterial activity grading B7: 3 (0 to 5)
[13]
  Activity relative to lindane: 5

## O=[N+]([O-])c1cc([N+](=O)[O-])c2ccccc2c1Nc1c(Cl)c(F)nc(F)c1Cl [Compound 25, 3,5-Dichloro-2,6-difluoro-4(2,4-dinitro-1-naphthylamino) pyridine]
[14]
  Amount of disease grading, disease A (Table 4): 2 (6 to 25)
[1]
  Amount of disease grading, disease B (Table 4): 3 (0 to 5)
[2]
  Amount of disease grading, disease C (Table 4): 3 (0 to 5)
Uncinula necator (vine)
  Amount of disease grading, disease D (Table 4): 3 (0 to 5)
[15]
  Amount of disease grading, disease E (Table 4): 0 (61 to 100)
[3]
  Mortality grading (kill): 0 (O represents less than 30% kill)
[4]
  Mortality grading (kill): 2 (2 represents 60 - 90% kill)
Aphis fabae
  Mortality grading (kill): 0 (O represents less than 30% kill)
Megoura viceae
  Mortality grading (kill): 0 (O represents less than 30% kill)
[5]
  Mortality grading (kill): 3 (3 represents over 90% kill)
[6]
  Mortality grading (kill): 0 (O represents less than 30% kill)
[16]
  Mortality grading (kill), contact test: 0 (O represents less than 30% kill)
[7]
  Mortality grading (kill): 3 (3 represents over 90% kill)
[8]
  Mortality grading (kill): 0 (key: O represents less than 30% kill; 1 represents 30 - 49% kill; 2 represents 60 - 90% kill; 3 represents over 90% kill; C indicates a chemosterilant effect.; A indicates an antifeeding effect.)
[9]
  Mortality grading (kill): 2 (key: O represents less than 30% kill; 1 represents 30 - 49% kill; 2 represents 60 - 90% kill; 3 represents over 90% kill; C indicates a chemosterilant effect.; A indicates an antifeeding effect.)
[17]
  Mortality grading (kill): 3 (3 represents over 90% kill)
[10]
  % Kill of slugs: 50%
[13]
  Activity relative to lindane: 5

## N#Cc1c(F)c(F)c(Nc2c(Cl)c(F)nc(F)c2Cl)c(F)c1F [Compound 19, 4(4-Cyano-2,3,5,6-tetrafluoroanilino)-3,5-dichloro-2,6-difluoropyridine]
[18]
  Amount of disease grading, disease G: 3 (0 to 5)
[3]
  Mortality grading (kill): 3 (3 represents over 90% kill)
[4]
  Mortality grading (kill): 3 (3 represents over 90% kill)
Aphis fabae
  Mortality grading (kill): 3 (3 represents over 90% kill)
Megoura viceae
  Mortality grading (kill): 3 (3 represents over 90% kill)
[5]
  Mortality grading (kill): 3 (3 represents over 90% kill)
[6]
  Mortality grading (kill): 3 (3 represents over 90% kill)
[16]
  Mortality grading (kill), contact test: 3 (3 represents over 90% kill)
[7]
  Mortality grading (kill): 2 (2 represents 60 - 90% kill)
[8]
  Mortality grading (kill): 0 (key: O represents less than 30% kill; 1 represents 30 - 49% kill; 2 represents 60 - 90% kill; 3 represents over 90% kill; C indicates a chemosterilant effect.; A indicates an antifeeding effect.)
[9]
  Mortality grading (kill): 0 (key: O represents less than 30% kill; 1 represents 30 - 49% kill; 2 represents 60 - 90% kill; 3 represents over 90% kill; C indicates a chemosterilant effect.; A indicates an antifeeding effect.)
Lettuce; [20]
  Damage to plants, post-emergence: 3
  Damage to plants, pre-emergence: 3
Tomato; [20]
  Damage to plants, post-emergence: 3
  Damage to plants, pre-emergence: 3
Wheat; [20]
  Damage to plants, post-emergence: 2
  Damage to plants, pre-emergence: 3
Maize; [20]
  Damage to plants, post-emergence: 1
  Damage to plants, pre-emergence: 3
Sugar beet
  Damage to plants, post-emergence: 2
Kale
  Damage to plants, post-emergence: 3
Carrot
  Damage to plants, post-emergence: 0
Pea
  Damage to plants, post-emergence: 0
Onion
  Damage to plants, post-emergence: 1
Barley
  Damage to plants, post-emergence: 2
Rice
  Damage to plants, post-emergence: 2
Oat
  Damage to plants, post-emergence: 0
[11]
  Antibacterial activity grading B1: 3 (0 to 5)
[12]
  Antibacterial activity grading B2: 3 (0 to 5)
Xanthomonas malvacearum
  Antibacterial activity grading B3: 3 (0 to 5)
Erwinia carotovora
  Antibacterial activity grading B4: 3 (0 to 5)
Xanthomonas oryzae
  Antibacterial activity grading B5: 3 (0 to 5)
Pseudomonas syringae
  Antibacterial activity grading B6: 3 (0 to 5)
Streptomyces scabies
  Antibacterial activity grading B7: 3 (0 to 5)
[13]
  Activity relative to lindane: 5
